Measurements published in patent publication US20160031937A1, “NEURAL REGENERATION PEPTIDES AND USES THEREFOR” (CURONZ HOLDINGS COMPANY LIMITED, priority 2013, published 2016).
Entries after “also recorded” stand apart in the source; their conditions may differ. Values belong to the molecule of their own block, whether it stands above or below them. Square brackets hold non-standard residues; d marks the D form. Ends that are not written are not given here. βAla = NCCC(=O)O

Assays:
cerebellar granule cells = experiment: Survival of cerebellar microexplants under glutamate and 3-NP toxicity; type: cell-based, Wistar rats; conditions: for block of NNZ-4921 neuronal survival-promoting activity: glutamate and 3-NP toxicity, 48 hours, eotaxin-3 10 and 100 nM, AMD3100 300 nM, co-administered with NNZ-4921
Protocol: Glass coverslips were obtained from New Zealand BioLabs, size 18 mm×18 mm. The coverslips were placed in a 150 mm Petri dish, at 8 cover slips per dish. Both sides of the coverslips were soaked and washed in absolute ethanol. The ethanol was discarded, and autoclaved MilliQ® was added to rinse both sides of coverslips. The water was then discarded, and the coverslips were air dried under the laminar flow.
Poly-D-lysine (PDL) was obtained from Sigma (P7280, lyophilized powder, γ-irradiated, average mol wt 30,000-70,000, cell culture tested). This was diluted with autoclaved PBS to make a stock solution of 1 mg/ml. The stock solution was divided into aliquots of 500 μl/tube and stored at −20° C.
For experiments, the stock solution of PDL was diluted with PBS 1:10 to make working solution of with a final concentration of 100 μg/ml. Approximately 100 μl of the PDL working solution was added to the coverslips and this was incubated at 34° C. for 2 hours (minimum) to overnight.
Next, more than 10 ml autoclaved MilliQ® was added into each Petri dish and the PDL-coated coverslips were rinsed. The coverslips were then transferred to 6 well culture plates. After air drying, the plates were wrapped in foil and stored at 4° C. until use. Storage was possible for up to 2 weeks.
Rat pups were used for this experiment (Wistar rats), either P3/4 or P7/8.
For extraction of P3/4 cerebellar cortices, 0.5 ml of ice-cold PBS/0.65% D(+)-glucose buffer was placed into a Petri dish and the tissue was placed into this solution. For extraction of P7/8 cerebellar cortices, 1.0 ml of ice-cold PBS/0.65% D(+)-glucose buffer was placed into a Petri dish and the tissue was placed into this solution.
The laminated cerebellar cortex was removed surgically and stored immediately in ice-cold PBS/0.65% D(+)-glucose buffer using the amounts as noted above. The cortex was then transferred to a Petri dish, and the meninges were removed from the cerebellar. The tissue was sliced by scissors, and passed once (P3/P4 pups) or twice (P7/P8 pups) through a 23-gauge sized needle attached to a 1 cc syringe to obtain uniformly sized microexplants. This was set aside in a Petri dish.
Next, the tissue was transferred into a 15 ml Falcon tube and centrifuged for 2 minutes at 350 rpm, at 4° C. The PBS/Glu(+) buffer was carefully discarded using a pipette. The pellet was resuspended in cold Neurobasal® medium (Invitrogen), at 1 ml per pup. This was centrifuged for 2 minutes at 350 rpm (60XG), at 4° C.
The medium was discarded and the pellet was resuspended in warm Neurobasal® medium, at 0.5 ml per P3/4 pup and 1.5 ml per P7/8 pup. This was then seeded on PDL-coated cover slips in 6 well plates at a volume of 40-45 μl per coverslip.
The coverslips were incubated at 34° C., in 5% CO2, with 100% humidity for 45 minutes to 1.5 hours to allow adherence. Then, 1 ml of Neurobasal® medium was added per well and the microexplants were checked under a microscope for adherence.
The toxins 3-nitropropionic acid and glutamate were prepared at 100× concentrations. For 50 mM 3-nitropropionic acid (Sigma), the stock solution was titrated with NaOH to a pH value of 7-7.2. For 50 mM L-glutamate, this was dissolved under heat (hot water).
As a negative control, 10 μl of 3-nitropropionic acid and 10 μl of glutamate was administered (4 wells). As a positive control, 20 μl of PBS was administered to normoxic microexplants without any toxins (4 wells). […]

human W9-hESCs = type: cell-based; conditions: 300 nM AMD3100, normoxic and OGD conditions
Protocol: Experiments with human embryonic stem cells (hESC) were carried out in accordance with the guidelines and regulations of the NHMRC and with the approval of the Austin Health Human Research Ethics Committee (Approval number H2008/03194), and University of Melbourne Human Research Ethics Committee (Approval number 0605017). H9 (WA-09, WiCell) cell lines were grown as previously described (Dottori & Pera, 2007).
Briefly, hESC were cultured on mitomycin-C treated mouse embryonic fibroblasts (MEFs) in hESC medium consisting of high-glucose Dulbecco's Modified Eagle Medium (DMEM) without sodium pyruvate, supplemented with 1% insulin/transferrin/selenium, 0.1 mM β-mercaptoethanol, 1% nonessential amino acids (NEAA), 2 mM glutamine, 25 U/ml penicillin, 25 μg/ml streptomycin (all from Invitrogen) and 20% fetal calf serum (FCS) (Hyclone).
Alternatively, hESC were cultured on mitomycin-C treated human foreskin fibroblasts (HFF; ATCC, CRL-2097) in KSR media consisting of DMEM/nutrient mixture F-12, supplemented with 0.1 mM […], 1% nonessential amino acids (NEAA), 2 mM glutamine, 25 U/ml penicillin, 25 μg/ml streptomycin and 20% knockout serum replacement (all from Invitrogen).
All cells were cultured at 37° C. in 5% CO2 with 100% humidity. Colonies were mechanically dissected every 7 days (subcultivated or passaged) and transferred to freshly prepared MEFs or HFFs. Media was changed every second day.
Neuronal differentiation was achieved using the noggin induction method described for mouse neurospheres as adapted by Dottori for human neurospheres (Dottori & Pera, 2007). The colonies were maintained at 37° C., with 5% CO2 in hESC medium supplemented with 500 ng/ml of Noggin for 14 days while replacing Noggin every other day.
At this point, the cells were washed with PBS and the colonies were again mechanically dissociated, but this time the central (differentiated) part of the colony was also cut into smaller pieces using a 26-gauge needle. The pieces were transferred to individual wells in a low adherent 96-well plate containing Neurobasal®A (NBM) (Invitrogen) supplemented with 1× X B-27® (Invitrogen) and 1× N-2 (Invitrogen) 20 ng/ml human recombinant EGF and 20 ng/ml human recombinant bFGF (Pharmacia). Media was changed every 2 to 3 days to allow neurosphere formation over 2 weeks.
In order to facilitate neuronal differentiation, neurospheres were again separated into smaller pieces under a dissection microscope, and three to four pieces were transferred to each well of a 96-well plate. Prior to this transfer, the plate was pre-coated with poly-D-lysine (10 μg/ml in PBS), washed in PBS, recoated with mouse laminin (5 μg/ml in PBS), and washed again. The cells were then grown for 11 days (with media changed every two days) in NBM lacking growth factors prior to induction of injury and assessment of hypothermia.
On the day of experiments, the medium was changed to NBM+N2 containing a B27 preparation lacking the usual antioxidants (Invitrogen; 10889-038) to eliminate their confounding effects (NBM-AO).
To maintain isoosmotic pressure conditions, 25 mM 2-deoxy-D-glucose was added to NBM-AO medium and equilibrated for 30 minutes at room temperature before the initial media change as described above. […] Culture supernatant was removed after this 4 hour period and stored at 4° C. until analysed for lactate dehydrogenase (LDH) activity.
The media was replaced with fresh NBM-AO and the cells were incubated for a further 20 hours containing drug, before again measuring LDH. Oxidative stress was induced by adding 50 μM fresh H2O2 (Sigma, H1009) to the growth factor negative NBM on initiation of the experiment with continued culture for 4 hours when LDH was measured and NBM-AO without H2O2 was returned to the culture which was maintained for a further 20 hours before again measuring LDH.

[1] = biological target: T1, homodimeric CXCR4 receptor (Homo sapiens, UniProt P61073); experiment: 125I-SDF-1 displacement binding study (CEREP); conditions: recombinant homodimeric CXCR4 expressing HEK293 cells; unlabelled peptide in competition
T1 construct: host or cells: HEK293
T1 sequence (P61073 whole entry): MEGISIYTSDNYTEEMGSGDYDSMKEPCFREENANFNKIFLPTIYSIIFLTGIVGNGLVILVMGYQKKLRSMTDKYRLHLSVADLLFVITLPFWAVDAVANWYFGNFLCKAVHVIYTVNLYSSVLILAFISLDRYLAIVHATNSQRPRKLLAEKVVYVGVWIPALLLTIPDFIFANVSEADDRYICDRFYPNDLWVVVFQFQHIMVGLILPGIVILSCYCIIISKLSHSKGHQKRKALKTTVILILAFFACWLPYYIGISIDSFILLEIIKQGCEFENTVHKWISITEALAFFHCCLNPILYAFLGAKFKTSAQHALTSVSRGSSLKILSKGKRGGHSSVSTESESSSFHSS
Protocol: This was determined by radioactive ^125I-SDF-1 displacement studies using CXCR4 homodimeric receptors and unlabelled NNZ-4921 and NRP2945 in competition.

neuronal stem cells = conditions: cited from earlier work
[2] = biological target: T2, homodimeric CXCR4 receptor (recombinant, expressed in HEK293 cells) (UniProt P61073 1-352, limits assumed); experiment: 125I-SDF-1 displacement on HEK293 cells expressing recombinant homodimeric CXCR4 (CEREP)
T2 construct: whole, on cells; also called CXCR4 homodimeric receptors; homodimeric CXCR4 receptor complex
T2 sequence (P61073 whole entry): as above

Molecule: c1cc(CN2CCCNCCNCCCNCC2)ccc1CN1CCCNCCNCCCNCC1 [AMD3100, reference compound]
block of NNZ-4921 neuronal survival-promoting activity (cerebellar granule cells): completely block
toxicity on W9-hESCs (human W9-hESCs): did not show any toxicity

Molecule: GRRAAPGR-β-Ala-GG (GRRAAPGR[βAla]GG) [NRP2983, synthetic 11-mer peptidomimetic closely related to NRP2945]
promotion of survival of cultivated cerebellar cells (cerebellar granule cells; 1fM NRP2983, oxidatively stressed cerebellar microexplants): 70%

Molecule: GRRAAPGRAGG [NNZ-4921]
activity of NNZ-4921 in reducing cell death in presence of eotaxin-3 in combination with AMD3100 (cerebellar granule cells; 10 fM or 100 fM NNZ-4921): completely blocked
displacement of 125I-SDF-1 from homodimeric CXCR4 receptor [1]: not able to displace the radioactive ligand SDF-1

Molecule: SDF-1: natural ligand for the CXCR4 receptor
EC50 values for chemoattraction (neuronal stem cells; SDF-1): lower nanomolar range
minimal concentration required to chemoattract neuronal stem cells (neuronal stem cells; Xu and Heilshorn, 2012): 9 nM

Molecule: eotaxin-3: human recombinant eotaxin-3 (Pharmaco), ligand of the CCR3 receptor, partial agonist
block of NNZ-4921 neuronal survival-promoting activity (cerebellar granule cells): abrogation of the neuroprotective effect; also recorded: completely blocked
effect of eotaxin-3 alone on neuronal survival (cerebellar granule cells; without NNZ-4921, normoxic or oxidative/excitotoxic stress conditions): no toxic effect; also recorded: no effect on the overall neuronal survival rate

binding result [2]: no binding
B1: NNZ-4921 (peptide)
peptide: GRRAAPGRAGG
